ChEMBL document CHEMBL5241117, “Current leishmaniasis drug discovery” (RSC Med Chem, 2022)

Experiments:
Leishmania donovani [1] = assay: Antileishmanial activity against Leishmania donovani infected in mouse model of visceral leishmaniasis assessed as reduction in parasite load; assay type: functional; set-up: scale not given: the % may be the effect or the level left
Leishmania donovani [2] = assay: Antileishmanial activity against Leishmania donovani; assay type: functional, organism-based
[3] = Cytotoxicity against human THP-1 cells; assay type: toxicity, cell-based
Leishmania donovani [4] = assay: Antileishmanial activity against Leishmania donovani infected in mouse model of visceral leishmaniasis assessed as reduction in parasite load at 25 mg/kg, po administered for 10 days; assay type: functional; set-up: scale not given: the % may be the effect or the level left; settings: time 10 day

Row | EC50 (Leishmania donovani [2]) | SMILES | Activity (Leishmania donovani [1]) | EC50 [3] | Activity (Leishmania donovani [4])
1 | – | O=C(Nc1ccc(F)c(-c2ccn3c(N4CCOCC4)cnc3n2)c1)N1CCCC1 [GSK-3494245] | 95% | – | –
2 | 900 nM | CCCCCCCCCCCCCCCCOP(=O)([O-])OCC[N+](C)(C)C [MILTEFOSINE] | – | – | –
3 | 1400 nM | C[C@H]1CN(c2n[nH]c3nc(N[C@H]4CC[C@H](NS(=O)(=O)CCC(F)(F)F)CC4)ncc23)CCO1 [GSK-3186899] | – | > 50000 nM | 99%

Row | SMILES | EC50 (Leishmania donovani [2]) | Activity (Leishmania donovani [1]) | EC50 [3] | Activity (Leishmania donovani [4])
4 | NC[C@@H]1O[C@H](O[C@H]2[C@@H](O)[C@H](O[C@@H]3[C@@H](O)[C@H](N)C[C@H](N)[C@H]3O[C@H]3O[C@H](CO)[C@@H](O)[C@H](O)[C@H]3N)O[C@@H]2CO)[C@H](N)[C@@H](O)[C@@H]1O [PAROMOMYCIN] | 6600 nM | – | – | –
